Measured values published in publication PMC7447621, “Chemoenzymatic synthesis of daptomycin analogs active against daptomycin-resistant strains” (Applied Microbiology and Biotechnology, 2020).
Several values for one entry are separate records, joined by “and”; a condition that tells them apart may be missing. Equal entries are not always repeated. Where two headings read alike, the source gives them in different places. Numbered stars: 1 amine (or outer) side, 2 acyl side, 3 side chain; on linkers, the order of the positions; unused ones are H or OH. Bridge positions count the residues as written; N and C are the ends. Square brackets hold non-standard residues; d marks the D form. Peptide text beside a SMILES is read from it. * marks the point of attachment. X11 = O=C([C@H](Cc1c[nH]c2cc(C/C=C/c3ccccc3)ccc12)N[*:1])[*:2]; X10 = C=C(C)/C=C/C(C)n1cc(C[C@H](N[*:1])C(=O)[*:2])c2ccccc21; X12 = C=C(C)/C=C/Cc1[nH]c2ccccc2c1C[C@H](N[*:1])C(=O)[*:2]; X1 = O=C([C@H](Cc1c[nH]c2cc(CC3=CCCCC3)ccc12)N[*:1])[*:2]; X8 = C=CC1(n2cc(C[C@H](N[*:1])C(=O)[*:2])c3ccccc32)CCCCC1; X2 = O=C([C@H](Cc1cn(CC=C2CCCCC2)c2ccccc12)N[*:1])[*:2]; X6 = CC/C(C)=C/Cn1cc(C[C@H](N[*:1])C(=O)[*:2])c2ccccc21; X4 = CCC(=CCn1cc(C[C@H](N[*:1])C(=O)[*:2])c2ccccc21)CC; X7 = O=C([C@H](Cc1cn(CC2=CCCCC2)c2ccccc12)N[*:1])[*:2]; X9 = CC(C)=CCn1cc(C[C@H](N[*:1])C(=O)[*:2])c2ccccc21; Glu(3R-Me) = C[C@H](CC(=O)O)[C@H](N)C(=O)O; Kyn = Nc1ccccc1C(=O)C[C@H](N)C(=O)O; Decanoyl = CCCCCCCCCC(=O)*; Orn = NCCC[C@H](N)C(=O)O

Assays:
S. aureus (hVISA, SR220) = settings: DapS, VISA, BEI NR-50512; MIC90, broth microdilution, MHB + 50 mg L^−1 calcium, 35 °C, 22 h, A600, triplicate
E. faecalis (S613) = settings: DapS, BEI HM-334, MIC90, broth microdilution, MHB + 50 mg L^−1 calcium, 35 °C, 22 h, A600, triplicate
E. faecalis (R712) = settings: DapR, BEI HM-335; MIC90, broth microdilution, MHB + 50 mg L^−1 calcium, 35 °C, 22 h, A600, triplicate
[1] = system: S. aureus (SAUSA300_1713 NE573); settings: DapR, strain JE2 transposon mutant NE573, BEI NR-47116; MIC90, broth microdilution, MHB + 50 mg L^−1 calcium, 35 °C, 22 h, A600, triplicate
[2] = system: S. aureus (SAUSA300_1715 NE1656); settings: DapR, strain JE2 transposon mutant NE1656, BEI NR-48198; MIC90, broth microdilution, MHB + 50 mg L^−1 calcium, 35 °C, 22 h, A600, triplicate
[3] = system: E. faecalis (hVRE, ATCC 700802); settings: vancomycin-resistant Enterococcus; Table 1, Fig. S1
S. aureus (ATCC 25923) = settings: DapS strain; MIC90, broth microdilution, MHB + 50 mg L^−1 calcium, inoculum 1×10^5–5×10^5 CFU/mL, 35 °C, 22 h, A600, triplicate; converted from μM

| Structure (SMILES) | MIC (S. aureus (hVISA, SR220)) [µg/mL] | MIC (E. faecalis (S613)) | MIC (E. faecalis (S613); listed as Dap) | MIC (E. faecalis (R712)) [µg/mL] | MIC [1] [µg/mL] | MIC [2] [µg/mL] | fold enhanced activity (compared with Dap) [3] | MIC (S. aureus (ATCC 25923)) [µg/mL] | MIC range (DapR S. aureus; DapR S. aureus strains (Table 1), range over the named analogs and strains) [µg/mL] | fold improvement in antibacterial activity over Dap (DapR S. aureus; DapR S. aureus, relative potency, Fig. S1) |
| --- | --- | --- | --- | --- | --- | --- | --- | --- | --- | --- |
| CCCCCCCCCC(=O)N[C@@H](Cc1c[nH]c2ccccc12)C(=O)N[C@H](CC(N)=O)C(=O)N[C@@H](CC(=O)O)C(=O)N[C@@H]1C(=O)NCC(=O)N[C@@H](CCCN)C(=O)N[C@@H](CC(=O)O)C(=O)N[C@H](C)C(=O)N[C@@H](CC(=O)O)C(=O)NCC(=O)N[C@H](CO)C(=O)N[C@@H]([C@H](C)CC(=O)O)C(=O)N[C@@H](CC(=O)c2ccccc2N)C(=O)O[C@@H]1C [DAP, Daptomycin] | 4.0 | 16.2 µg/mL | ~ 16 μg mL^−1 | >32.4 | 16.2 | 16.2 | – | – | – | – |
| CCCCCCCCCC(=O)N[C@@H](Cc1cn(CC=C(C)C)c2ccccc12)C(=O)N[C@H](CC(N)=O)C(=O)N[C@@H](CC(=O)O)C(=O)N[C@@H]1C(=O)NCC(=O)N[C@@H](CCCN)C(=O)N[C@@H](CC(=O)O)C(=O)N[C@H](C)C(=O)N[C@@H](CC(=O)O)C(=O)NCC(=O)N[C@H](CO)C(=O)N[C@@H]([C@H](C)CC(=O)O)C(=O)N[C@@H](CC(=O)c2ccccc2N)C(=O)O[C@@H]1C [compound 40, N1-Trp-prenyl-Dap] (Decanoyl-[X9][dN]DTG[Orn]D[dA]DG[dS][Glu(3R-Me)][Kyn]; ester 4-C) | 0.5 | – | – | 33.7 | – | – | – | – | – | – |
| CCCCCCCCCC(=O)N[C@@H](Cc1cn(C/C=C(\C)CC)c2ccccc12)C(=O)N[C@H](CC(N)=O)C(=O)N[C@@H](CC(=O)O)C(=O)N[C@@H]1C(=O)NCC(=O)N[C@@H](CCCN)C(=O)N[C@@H](CC(=O)O)C(=O)N[C@H](C)C(=O)N[C@@H](CC(=O)O)C(=O)NCC(=O)N[C@H](CO)C(=O)N[C@@H]([C@H](C)CC(=O)O)C(=O)N[C@@H](CC(=O)c2ccccc2N)C(=O)O[C@@H]1C [compound 42, N1-6-Dap] (Decanoyl-[X6][dN]DTG[Orn]D[dA]DG[dS][Glu(3R-Me)][Kyn]; ester 4-C) | 0.5 | 1.1 µg/mL | – | 17.0 | – | – | 5–15 fold | – | – | – |
| CCCCCCCCCC(=O)N[C@@H](Cc1cn(CC=C(CC)CC)c2ccccc12)C(=O)N[C@H](CC(N)=O)C(=O)N[C@@H](CC(=O)O)C(=O)N[C@@H]1C(=O)NCC(=O)N[C@@H](CCCN)C(=O)N[C@@H](CC(=O)O)C(=O)N[C@H](C)C(=O)N[C@@H](CC(=O)O)C(=O)NCC(=O)N[C@H](CO)C(=O)N[C@@H]([C@H](C)CC(=O)O)C(=O)N[C@@H](CC(=O)c2ccccc2N)C(=O)O[C@@H]1C [compound 44, N1-7-Dap] (Decanoyl-[X4][dN]DTG[Orn]D[dA]DG[dS][Glu(3R-Me)][Kyn]; ester 4-C) | 0.5 | 0.3 to 0.6 µg/mL and 0.5 µg/mL | – | 4.3 | – | 0.5 | – | – | – | – |
| C=C(C)/C=C/Cc1[nH]c2ccccc2c1C[C@H](NC(=O)CCCCCCCCC)C(=O)N[C@H](CC(N)=O)C(=O)N[C@@H](CC(=O)O)C(=O)N[C@@H]1C(=O)NCC(=O)N[C@@H](CCCN)C(=O)N[C@@H](CC(=O)O)C(=O)N[C@H](C)C(=O)N[C@@H](CC(=O)O)C(=O)NCC(=O)N[C@H](CO)C(=O)N[C@@H]([C@H](C)CC(=O)O)C(=O)N[C@@H](CC(=O)c2ccccc2N)C(=O)O[C@@H]1C [compound 46, C2R-16-Dap] (Decanoyl-[X12][dN]DTG[Orn]D[dA]DG[dS][Glu(3R-Me)][Kyn]; ester 4-C) | 17.0 | – | – | – | – | – | – | – | – | – |
| C=C(C)/C=C/C(C)n1cc(C[C@H](NC(=O)CCCCCCCCC)C(=O)N[C@H](CC(N)=O)C(=O)N[C@@H](CC(=O)O)C(=O)N[C@@H]2C(=O)NCC(=O)N[C@@H](CCCN)C(=O)N[C@@H](CC(=O)O)C(=O)N[C@H](C)C(=O)N[C@@H](CC(=O)O)C(=O)NCC(=O)N[C@H](CO)C(=O)N[C@@H]([C@H](C)CC(=O)O)C(=O)N[C@@H](CC(=O)c3ccccc3N)C(=O)O[C@@H]2C)c2ccccc21 (stereo partly drawn) [compound 48, N1R-18-Dap] (Decanoyl-[X10][dN]DTG[Orn]D[dA]DG[dS][Glu(3R-Me)][Kyn]; ester 4-C) | – | – | – | 17.1 | – | – | – | 17.1 | – | – |
| C=CC1(n2cc(C[C@H](NC(=O)CCCCCCCCC)C(=O)N[C@H](CC(N)=O)C(=O)N[C@@H](CC(=O)O)C(=O)N[C@@H]3C(=O)NCC(=O)N[C@@H](CCCN)C(=O)N[C@@H](CC(=O)O)C(=O)N[C@H](C)C(=O)N[C@@H](CC(=O)O)C(=O)NCC(=O)N[C@H](CO)C(=O)N[C@@H]([C@H](C)CC(=O)O)C(=O)N[C@@H](CC(=O)c4ccccc4N)C(=O)O[C@@H]3C)c3ccccc32)CCCCC1 [compound 50, N1R-19-Dap] (Decanoyl-[X8][dN]DTG[Orn]D[dA]DG[dS][Glu(3R-Me)][Kyn]; ester 4-C) | – | – | – | 17.3 | – | – | – | – | – | – |
| CCCCCCCCCC(=O)N[C@@H](Cc1cn(CC=C2CCCCC2)c2ccccc12)C(=O)N[C@H](CC(N)=O)C(=O)N[C@@H](CC(=O)O)C(=O)N[C@@H]1C(=O)NCC(=O)N[C@@H](CCCN)C(=O)N[C@@H](CC(=O)O)C(=O)N[C@H](C)C(=O)N[C@@H](CC(=O)O)C(=O)NCC(=O)N[C@H](CO)C(=O)N[C@@H]([C@H](C)CC(=O)O)C(=O)N[C@@H](CC(=O)c2ccccc2N)C(=O)O[C@@H]1C [compound 51, N1-19-Dap] (Decanoyl-[X2][dN]DTG[Orn]D[dA]DG[dS][Glu(3R-Me)][Kyn]; ester 4-C) | 1.1 | 1.3 µg/mL | – | 5.2 | 1.3 | 2.6 | 5–15 fold | – | – | – |
| CCCCCCCCCC(=O)N[C@@H](Cc1c[nH]c2cc(CC3=CCCCC3)ccc12)C(=O)N[C@H](CC(N)=O)C(=O)N[C@@H](CC(=O)O)C(=O)N[C@@H]1C(=O)NCC(=O)N[C@@H](CCCN)C(=O)N[C@@H](CC(=O)O)C(=O)N[C@H](C)C(=O)N[C@@H](CC(=O)O)C(=O)NCC(=O)N[C@H](CO)C(=O)N[C@@H]([C@H](C)CC(=O)O)C(=O)N[C@@H](CC(=O)c2ccccc2N)C(=O)O[C@@H]1C [compound 52, C6-20-Dap] (Decanoyl-[X1][dN]DTG[Orn]D[dA]DG[dS][Glu(3R-Me)][Kyn]; ester 4-C) | 0.5 | 0.3 to 0.6 µg/mL and 0.4 µg/mL | – | 6.2 | 0.4 | 0.2 | 5–15 fold | – | 0.2 to 0.5 | 30–80 fold |
| CCCCCCCCCC(=O)N[C@@H](Cc1cn(CC2=CCCCC2)c2ccccc12)C(=O)N[C@H](CC(N)=O)C(=O)N[C@@H](CC(=O)O)C(=O)N[C@@H]1C(=O)NCC(=O)N[C@@H](CCCN)C(=O)N[C@@H](CC(=O)O)C(=O)N[C@H](C)C(=O)N[C@@H](CC(=O)O)C(=O)NCC(=O)N[C@H](CO)C(=O)N[C@@H]([C@H](C)CC(=O)O)C(=O)N[C@@H](CC(=O)c2ccccc2N)C(=O)O[C@@H]1C [compound 53, N1-20-Dap] (Decanoyl-[X7][dN]DTG[Orn]D[dA]DG[dS][Glu(3R-Me)][Kyn]; ester 4-C) | – | 17.1 µg/mL | – | >17.1 | 17.1 | 17.1 | – | – | – | – |
| CCCCCCCCCC(=O)N[C@@H](Cc1c[nH]c2cc(C/C=C/c3ccccc3)ccc12)C(=O)N[C@H](CC(N)=O)C(=O)N[C@@H](CC(=O)O)C(=O)N[C@@H]1C(=O)NCC(=O)N[C@@H](CCCN)C(=O)N[C@@H](CC(=O)O)C(=O)N[C@H](C)C(=O)N[C@@H](CC(=O)O)C(=O)NCC(=O)N[C@H](CO)C(=O)N[C@@H]([C@H](C)CC(=O)O)C(=O)N[C@@H](CC(=O)c2ccccc2N)C(=O)O[C@@H]1C [compound 54, C6-22-Dap] (Decanoyl-[X11][dN]DTG[Orn]D[dA]DG[dS][Glu(3R-Me)][Kyn]; ester 4-C) | – | – | – | 8.7 | – | – | – | – | – | – |
